Results on one molecule are retold here after patent publication US20230331785A1 (priority 2018, published 2023).

Holding throughout (conditions): human
In series [1] the test system is HER2 positive HCC1954 cells.
In series [2] the test system is HCC1569 cells.
Series [3] has as its system NCI-N87 cells.
The test system of series [4] is HER2 positive JIMT-1 cells.
Series [5] deals with HER2 positive NCI/ADR-RES cells (NCI/ADR-RES-HER2+).

Each structure is given as a SMILES string.

On to `CS(=O)(=O)CCNCc1ccc(-c2ccc3ncnc(Nc4ccc(OCc5cccc(F)c5)c(Cl)c4)c3c2)o1` [lapatinib], for which, in series [1], the “In Vitro Cytotoxicity CD50, HCC1954” value is 786 nM. The “In Vitro Cytotoxicity CD50, HCC1569” value in series [2] turned out to be 885 nM. For the same molecule, the “In Vitro Cytotoxicity CD50, NCI-N87” value in series [3] came out at 112 nM. Besides, the “In Vitro Cytotoxicity CD50, JIMT-1” value in series [4] is given as 5,650 nM. Also, in series [5], the “In Vitro Cytotoxicity CD50, NCI/ADR-RES-HER2+” value was 2,704 nM.
